# Results reported in ChEMBL document CHEMBL1201862, “PubChem BioAssay data set” (2004).
# “And” between values parts separate entries of the source, which are not always exact repeats. Identical values can stand only once.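 Dose response: 5 concentrations. Exposure: 48 h. Format: 96-well plates. Endpoint: linear interpolation; highest concentration if not reached. At the GI50, growth is halved.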 The source made the active and inactive calls. Rule as the data show it: active = GI50 up to about 1.1 µM and inactive = higher.
# How the values were obtained:
# Experiment in all cases: inhibition of tumour cell growth, NCI panel, 48 h
# [1] = test system: SF-295
# [2] = test system: COLO 205
# [3] = test system: SK-MEL-28
# [4] = test system: HCT-15
# [5] = test system: CCRF-CEM
# [6] = test system: OVCAR-5
# [7] = test system: M14
# [8] = test system: SNB-19
# [9] = test system: UO-31
# [10] = test system: SF-268
# [11] = test system: HOP-62
# [12] = test system: SF-539
# [13] = test system: NCI-H23
# [14] = test system: MOLT-4
# [15] = test system: HL-60
# [16] = test system: A498
# [17] = test system: SR
# [18] = test system: T47D
# [19] = test system: ACHN
# [20] = test system: 786-0
# [21] = test system: LOX IMVI
# [22] = test system: TK-10
# [23] = test system: EKVX
# [24] = test system: SNB-75
# [25] = test system: HCC 2998
# [26] = test system: DU-145
# [27] = test system: SK-MEL-2
# [28] = test system: MDA-MB-435
# [29] = test system: OVCAR-4
# [30] = test system: SW-620
# [31] = test system: MDA-N
# [32] = test system: U-251
# [33] = test system: NCI/ADR-RES
# [34] = test system: OVCAR-8
# [35] = test system: K562
# [36] = test system: HT-29
# [37] = test system: NCI-H522
# [38] = test system: CAKI-1
# [39] = test system: UACC-257
# [40] = test system: UACC-62
# [41] = test system: Hs-578T
# [42] = test system: A549
# [43] = test system: HOP-92
# [44] = test system: BT-549
# [45] = test system: IGROV-1
# [46] = test system: HCT-116
# [47] = test system: KM12
# [48] = test system: OVCAR-3
# [49] = test system: RXF 393
# [50] = test system: SK-OV-3
# [51] = test system: SK-MEL-5
# [52] = test system: Malme-3M
# [53] = test system: NCI-H460
# [54] = test system: PC-3
# [55] = test system: MCF7
# [56] = test system: RPMI-8226
# [57] = test system: MDA-MB-231
# [58] = test system: NCI-H226
# [59] = test system: SN12C
# [60] = test system: DMS-273
# [61] = test system: LXFL 529
# [62] = test system: DLD-1
# [63] = test system: DMS-114
# [64] = test system: SNB-78
# [65] = test system: M19-MEL
smiles,measurement,setting,value
COc1ccc2[nH]c(C(=O)N3CC(CCl)c4ccc([N+](=O)[O-])cc43)cc2c1 (stereo not given),GI50,[1],> 100 µM (inactive)
same,GI50,[2],> 100 µM (inactive)
same,GI50,[3],> 100 µM (inactive)
same,GI50,[4],> 100 µM
same,GI50,[5],> 100 µM (inactive)
same,GI50,[6],> 100 µM (inactive)
same,GI50,[7],> 100 µM (inactive)
same,GI50,[8],> 100 µM (inactive)
same,GI50,[9],> 100 µM (inactive)
same,GI50,[10],> 100 µM (inactive)
same,GI50,[11],> 100 µM (inactive)
same,GI50,[12],> 90.4 µM (inactive)
same,GI50,[13],> 100 µM (inactive)
same,GI50,[14],> 100 µM (inactive)
same,GI50,[15],> 100 µM (inactive)
same,GI50,[16],> 100 µM (inactive)
same,GI50,[17],> 100 µM (inactive)
same,GI50,[18],> 21.6 µM (inactive)
same,GI50,[19],> 100 µM (inactive)
same,GI50,[20],> 100 µM (inactive)
same,GI50,[21],> 100 µM (inactive)
same,GI50,[22],> 100 µM (inactive)
same,GI50,[23],54.1 µM (inactive)
same,GI50,[24],> 37.7 µM (inactive)
same,GI50,[25],> 100 µM (inactive)
same,GI50,[26],> 100 µM (inactive)
same,GI50,[27],> 100 µM (inactive)
same,GI50,[28],> 100 µM (inactive)
same,GI50,[29],> 64.4 µM (inactive)
same,GI50,[30],> 100 µM (inactive)
same,GI50,[31],> 100 µM (inactive)
same,GI50,[32],> 100 µM (inactive)
same,GI50,[33],> 100 µM (inactive)
same,GI50,[34],> 80.9 µM (inactive)
same,GI50,[35],> 100 µM (inactive)
same,GI50,[36],> 95.7 µM (inactive)
same,GI50,[37],75 µM (inactive)
same,GI50,[38],> 100 µM (inactive)
same,GI50,[39],> 100 µM (inactive)
same,GI50,[40],> 100 µM (inactive)
same,GI50,[41],37 µM (inactive)
same,GI50,[42],> 100 µM (inactive)
same,GI50,[43],> 100 µM (inactive)
same,GI50,[44],> 100 µM (inactive)
same,GI50,[45],64.1 µM (inactive)
same,GI50,[46],> 100 µM (inactive)
same,GI50,[47],> 31.8 µM (inactive)
same,GI50,[48],> 100 µM (inactive)
same,GI50,[49],> 65.5 µM (inactive)
same,GI50,[50],> 100 µM (inactive)
same,GI50,[51],> 100 µM (inactive)
same,GI50,[52],> 100 µM (inactive)
same,GI50,[53],> 100 µM (inactive)
same,GI50,[54],> 100 µM (inactive)
same,GI50,[55],6.41 µM (inactive)
same,GI50,[56],> 100 µM (inactive)
same,GI50,[57],> 23.4 µM (inactive)
same,GI50,[58],33.8 µM (inactive)
same,GI50,[59],> 100 µM (inactive)
CC(=O)OCC1OC(n2c(=S)n(-c3ccccc3)c(=O)c3cc(Br)cc(Br)c32)C(OC(C)=O)C(OC(C)=O)C1OC(C)=O (stereo not given),GI50,[60],> 100 µM (inactive) and 64.9 µM (inactive)
same,GI50,[2],> 100 µM (inactive)
same,GI50,[3],> 100 µM (inactive)
same,GI50,[4],83.4 µM
same,GI50,[61],72.1 µM (inactive) and 45.2 µM (inactive)
same,GI50,[5],> 100 µM (inactive)
same,GI50,[6],> 100 µM (inactive)
same,GI50,[15],86.7 µM (inactive)
same,GI50,[16],> 100 µM (inactive) and 61.7 µM (inactive)
same,GI50,[19],51.8 µM (inactive) and 87.3 µM (inactive)
same,GI50,[21],60 µM (inactive)
same,GI50,[23],> 100 µM (inactive)
same,GI50,[24],33.5 µM (inactive) and 22.6 µM (inactive)
same,GI50,[25],> 100 µM (inactive)
same,GI50,[27],> 100 µM (inactive)
same,GI50,[30],> 100 µM (inactive)
same,GI50,[62],> 100 µM (inactive)
same,GI50,[63],35.2 µM (inactive) and 57.8 µM (inactive)
same,GI50,[34],> 100 µM (inactive) and 92.9 µM (inactive)
same,GI50,[35],65.3 µM (inactive)
same,GI50,[36],> 100 µM (inactive)
same,GI50,[64],99.3 µM (inactive) and 54.8 µM (inactive)
same,GI50,[40],59.2 µM (inactive) and 54.3 µM (inactive)
same,GI50,[42],90.8 µM (inactive) and 58.6 µM (inactive)
same,GI50,[65],65.6 µM (inactive)
same,GI50,[46],65.2 µM (inactive)
same,GI50,[47],83 µM (inactive) and 78.5 µM (inactive)
same,GI50,[51],91.6 µM (inactive)
same,GI50,[52],> 100 µM (inactive)
same,GI50,[53],> 100 µM (inactive) and 81.8 µM (inactive)
same,GI50,[58],61.7 µM (inactive)
same,GI50,[59],> 100 µM (inactive) and 81.8 µM (inactive)
C[C@H]1C2Cc3cc(O)ccc3[C@@]1(C)CCN2CCc1ccc(N)cc1,GI50,[1],18.6 µM (inactive)
same,GI50,[2],28.6 µM (inactive)
same,GI50,[3],18.6 µM (inactive)
same,GI50,[4],18.2 µM
same,GI50,[5],18.5 µM (inactive)
same,GI50,[6],> 100 µM (inactive)
same,GI50,[7],18.4 µM (inactive)
same,GI50,[8],81.7 µM (inactive)
same,GI50,[9],37.2 µM (inactive)
same,GI50,[10],19.6 µM (inactive)
same,GI50,[11],8.69 µM (inactive)
same,GI50,[12],16.7 µM (inactive)
same,GI50,[13],> 100 µM (inactive)
same,GI50,[14],23.7 µM (inactive)
same,GI50,[15],38.3 µM (inactive)
same,GI50,[16],> 100 µM (inactive)
same,GI50,[17],21.6 µM (inactive)
same,GI50,[18],80.5 µM (inactive)
same,GI50,[19],58.1 µM (inactive)
same,GI50,[20],15.8 µM (inactive)
same,GI50,[21],14.1 µM (inactive)
same,GI50,[22],> 100 µM (inactive)
same,GI50,[23],> 100 µM (inactive)
same,GI50,[24],> 100 µM (inactive)
same,GI50,[25],13.6 µM (inactive)
same,GI50,[26],> 100 µM (inactive)
same,GI50,[27],41.9 µM (inactive)
same,GI50,[28],17.1 µM (inactive)
same,GI50,[29],55.6 µM (inactive)
same,GI50,[30],15.3 µM (inactive)
same,GI50,[31],20.7 µM (inactive)
same,GI50,[32],17.6 µM (inactive)
same,GI50,[33],25.7 µM (inactive)
same,GI50,[34],7.98 µM (inactive)
same,GI50,[35],22.3 µM (inactive)
same,GI50,[36],15.5 µM (inactive)
same,GI50,[37],19.7 µM (inactive)
same,GI50,[38],> 100 µM (inactive)
same,GI50,[39],18.6 µM (inactive)
same,GI50,[40],> 100 µM (inactive)
same,GI50,[41],> 100 µM (inactive)
same,GI50,[42],28.6 µM (inactive)
same,GI50,[43],1.71 µM (inactive)
same,GI50,[44],> 100 µM (inactive)
same,GI50,[45],13.6 µM (inactive)
same,GI50,[46],15.9 µM (inactive)
same,GI50,[47],16.7 µM (inactive)
same,GI50,[48],14.2 µM (inactive)
same,GI50,[49],52.7 µM (inactive)
same,GI50,[50],> 100 µM (inactive)
same,GI50,[51],14.4 µM (inactive)
same,GI50,[52],18.8 µM (inactive)
same,GI50,[53],30.3 µM (inactive)
same,GI50,[54],18.8 µM (inactive)
same,GI50,[55],15.2 µM (inactive)
same,GI50,[56],28.4 µM (inactive)
same,GI50,[57],34.9 µM (inactive)
same,GI50,[58],> 100 µM (inactive)
same,GI50,[59],98.9 µM (inactive)
